For 14 compounds, TGI results are on record in PubChem BioAssay (NCI).

Among the test systems are HCC-2998 colon; SNB-75 CNS; COLO 205 colon; HCT-15 colon; NCI-H522 lung; SW-620 colon; RXF 393 renal; SK-MEL-5 melanoma.
Assay in all cases: NCI tumour cell line growth inhibition, 48 h

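Five compound concentrations were applied to cells in 96-well plates for 48 hours; endpoints were derived by simple linear interpolation of the resulting dose-response curve. TGI is the concentration that stops growth completely.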

Turning to `CCOc1ccccc1NC(=O)C1=C(C)NC(C)=C(C(=O)Nc2ccccc2OCC)C1c1ccc([N+](=O)[O-])cc1`, the TGI in the assay with HCC-2998 colon, in the assay with SNB-75 CNS, in the assay on COLO 205 colon, with HCT-15 colon, in the assay on NCI-H522 lung and with SW-620 colon was more than 100 µM throughout. The same compound gave a TGI in the assay with RXF 393 renal of more than 100 µM.

As for `COc1cc(CCc2ccc(OC(C)=O)cc2)cc(OC)c1OC`, the TGI with SNB-75 CNS, with COLO 205 colon, in the assay with HCT-15 colon, in the assay on NCI-H522 lung, in the assay on SW-620 colon and with SK-MEL-5 melanoma was more than 100 µM in each case. In the assay with RXF 393 renal, this compound showed a TGI of more than 100 µM.

Regarding `Cc1nc(-n2nc(-c3ccccc3)cc2-c2ccccc2)sc1C(=O)/C=C/c1ccccc1`, the TGI is more than 100 µM in the assay on HCC-2998 colon; 89.7 µM in the assay on SNB-75 CNS; more than 100 µM with COLO 205 colon; more than 100 µM in the assay with HCT-15 colon; more than 100 µM in the assay with NCI-H522 lung; more than 100 µM in the assay on SW-620 colon. For the same compound, the TGI with SK-MEL-5 melanoma and in the assay on RXF 393 renal was more than 100 µM in each case.

Regarding `C/C(CC(=O)Nc1cccc([N+](=O)[O-])c1)=N\NC(=O)C[n+]1ccccc1`, the TGI with HCC-2998 colon, in the assay with SNB-75 CNS, with COLO 205 colon, in the assay with NCI-H522 lung, with SW-620 colon and in the assay on SK-MEL-5 melanoma was more than 100 µM throughout. In the assay with RXF 393 renal, this compound came in with a TGI of more than 100 µM.

Consider `O=C1CNN=C(Cn2nc(-c3ccccc3)c3ccccc3c2=O)N1`, for which the TGI in the assay with HCC-2998 colon, in the assay on SNB-75 CNS, in the assay on COLO 205 colon, with HCT-15 colon, with NCI-H522 lung and in the assay with SW-620 colon was more than 100 µM in each case. The compound further showed a TGI in the assay with SK-MEL-5 melanoma of more than 100 µM.

For the compound `O=c1[nH]c2ccc([N+](=O)[O-])cc2nc1/C(=N/Nc1ccccc1)C(O)c1ccco1` (stereo not given), the TGI is more than 100 µM in the assay with HCC-2998 colon; more than 100 µM in the assay with SNB-75 CNS; more than 100 µM with COLO 205 colon; 63.5 µM in the assay with HCT-15 colon; 96.5 µM with NCI-H522 lung; more than 100 µM in the assay on SW-620 colon. The values for the TGI in the assay on SK-MEL-5 melanoma and in the assay on RXF 393 renal were 90.6 µM and more than 100 µM, respectively.

Regarding `O=C(c1ccccc1)c1cc(Cl)ccc1NCn1nnc2ccccc21`, the TGI in the assay with HCC-2998 colon, in the assay on SNB-75 CNS, in the assay with COLO 205 colon, in the assay with HCT-15 colon, in the assay with NCI-H522 lung and in the assay with SW-620 colon was more than 100 µM throughout. Besides, in the assay on RXF 393 renal, the TGI was more than 100 µM.

In the case of `O=CC1=CCC2c3[nH]c4ccccc4c3CCN2C1` (stereo not given), the TGI with HCC-2998 colon is 253 µM; with COLO 205 colon, more than 396 µM; in the assay on HCT-15 colon it was 156 µM; in the assay on NCI-H522 lung, more than 396 µM; in the assay on SW-620 colon, more than 396 µM; with SK-MEL-5 melanoma, more than 396 µM. In the assay with RXF 393 renal, this compound registered a TGI of more than 396 µM.

`O=c1cccccc1[O-].O=c1cccccc1[O-].O=c1cccccc1[O-].[Sm+3]`: the TGI was more than 100 µM with HCC-2998 colon; more than 100 µM with HCT-15 colon; more than 100 µM in the assay on NCI-H522 lung; more than 100 µM in the assay with SW-620 colon; 89.9 µM in the assay on SK-MEL-5 melanoma; 53.6 µM in the assay on RXF 393 renal.

For the compound `O=C(/C(=C/c1ccc(O)cc1)c1ccccc1)c1ccccc1`, the TGI with HCC-2998 colon was found to be 32 µM; in the assay with SNB-75 CNS, 42.5 µM; with COLO 205 colon, 32.8 µM; in the assay with HCT-15 colon, 31.9 µM; with NCI-H522 lung, 28.7 µM; with SW-620 colon, 32 µM. Moreover, the TGI in the assay with SK-MEL-5 melanoma came out at 28.3 µM.

For `COc1ccc2c(c1)[n+](=O)c(C(C)=O)c(C)n2[O-]`, the TGI with HCC-2998 colon, in the assay with COLO 205 colon, in the assay on HCT-15 colon, in the assay on NCI-H522 lung, with SW-620 colon and in the assay with SK-MEL-5 melanoma was more than 100 µM each time. In the assay on RXF 393 renal, this compound showed a TGI of more than 100 µM.

In the case of `CC1=CCN(c2ccccn2)OC1c1ccccc1` (stereo not given), the TGI with HCC-2998 colon, in the assay on SNB-75 CNS, with COLO 205 colon, with HCT-15 colon, with NCI-H522 lung and in the assay on SW-620 colon was more than 100 µM each time. The compound further returned a TGI in the assay with RXF 393 renal of more than 100 µM.

In the case of `COC(=O)C1CCC(=O)N1/C(C)=N/NC(=O)Nc1ccc(Cl)c(Cl)c1` (stereo not given), the TGI with HCC-2998 colon is more than 100 µM; with SNB-75 CNS, more than 100 µM; in the assay with COLO 205 colon it was more than 100 µM; in the assay on HCT-15 colon, 68.7 µM; in the assay with SW-620 colon, more than 100 µM; in the assay on SK-MEL-5 melanoma, more than 100 µM. Besides, in the assay with RXF 393 renal, the TGI was more than 100 µM.

As for `COC(=O)CC1CC2(C(=O)OC)c3[nH]c4ccccc4c3CCN2C1=O` (stereo not given), the TGI in the assay on HCC-2998 colon, in the assay on SNB-75 CNS, with COLO 205 colon, with HCT-15 colon, with NCI-H522 lung and in the assay with SW-620 colon was more than 100 µM throughout. The TGI with SK-MEL-5 melanoma and with RXF 393 renal was more than 100 µM each time.
